Reference: patent publication US20220227761A1, “OXOACRIDINYL ACETIC ACID DERIVATIVES AND METHODS OF USE” (STINGTHERA, INC., priority 2019, published 2022)

Assays:
[1] = tested on: STING protein; IRF/IFN signaling in THP-1 R232 cells; experiment: Cell based reporter assay, THP-1 R232 IRF-luc; conditions: Homo sapiens, THP1-dual-KI R232 cells, IRF luciferase reporter; for Emax: maximum measured activity, read-out: THP 1-dual-KI R232_IRF(Luciferase)_Activity Maximum measured (%); for IC50: read-out: THP 1-dual-KI R232_IRF(Luciferase) IC50
From the text: Cell reporter assays were developed to measure the ability of compounds of the application to activate the STING protein and activate both IRF/IFN and the NFkB signaling pathways in the myeloid derived cell line THP-1, which is commercially available from several suppliers. Briefly, THP-1 monocytes were transfected and selected for stable integration of 2 reporter constructs. Clones incorporating stably integrated vectors were further selected by antibiotic resistance to blastocidin and zeocin. The reporter constructs included: (1) firefly luciferase reporter gene under the control of an ISG54 promoter fused to five interferon (IFN)-stimulated response elements to measure IRF transcription factor binding activity and (2) secreted embryonic alkaline phosphatase reporter gene under transcription control of an IFN-beta minimal promoter fused to 5 copies of the NFkB consensus transcriptional response element and 3 copies of the c-Rel binding site.
The resulting THP-1 cell line was further modified to incorporate 3 amino acid point mutations (H71R A230G Q293R). This modification of the native TMEM173 gene in THP-1 cells (HAQ) was designed to produce a cell reporter that expressed the most common allelic variant in the human population (THP-1 R232, available from InvivoGen). Alternatively, the TMEM173 gene was knocked out to provide a congenic control to counter-screen for compound activation that was independent of the STING protein (THP-1 STING KO).
Once cell lines were established, reporter assay protocols were developed and optimized to screen small molecule compounds for agonist activity. Assay optimization for efficacy and Z′ value included titration of the following parameters:
• 1. Cell pre-activation with PMA • 2. Cell seeding density • 3. DMSO tolerance • 4. Media selection • 5. FBS concentration • 6. Incubation time • 7. Co-Assessment of cell viability by CTG assay • 8. Appropriate HPE and ZPE controls • 9. Dose Response Titration
• 1. No pre-activation with PMA • 2. 5×10^4 cells/well in 96 well plate format • 3. <0.5% DMSO • 4. RPMI 1640+2.5 mg/ml glucose • 5. 10% FBS • 6. 14-18 hr incubation • 7. Cell Titer Glo reagent (Promega) following supernatant removal • 8. […] 8 point, 2 fold, duplicate starting at 150 μM

[2] = biological target: T1, mouse STING protein (139-328) (Mus musculus, UniProt Q3TBT3); experiment: Radiometric filtration binding competition assay (FBA), mSTING
T1 sequence (Q3TBT3 139-328): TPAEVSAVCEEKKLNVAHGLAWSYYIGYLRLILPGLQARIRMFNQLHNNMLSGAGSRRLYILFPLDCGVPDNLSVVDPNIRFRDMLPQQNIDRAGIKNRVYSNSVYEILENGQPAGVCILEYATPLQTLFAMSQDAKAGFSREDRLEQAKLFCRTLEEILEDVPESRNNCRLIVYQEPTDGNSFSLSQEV

hSTING-R232 (aa140-379) = hSTING-R232 (aa140-379) (Homo sapiens, UniProt Q86WV6, H232R); experiment: STING differential scanning fluorimetry (DSF) assay, hSTING WT; conditions: shift in melting temperature apo vs ligand-bound
Chain of hSTING-R232 (aa140-379) (Q86WV6 140-379 H232R): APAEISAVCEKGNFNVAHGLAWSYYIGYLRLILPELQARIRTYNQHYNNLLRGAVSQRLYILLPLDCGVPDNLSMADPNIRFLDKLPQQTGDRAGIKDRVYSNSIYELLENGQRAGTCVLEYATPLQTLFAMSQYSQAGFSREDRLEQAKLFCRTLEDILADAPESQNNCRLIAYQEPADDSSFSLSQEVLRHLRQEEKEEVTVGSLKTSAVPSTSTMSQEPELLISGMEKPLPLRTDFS
Experimental: A STING DSF assay was performed to determine protein thermostability shift in response to small molecule ligand binding. A STING thermnostability shift assay based on differential scanning fluorimetry was used to measure (1) the net shift in melting temperature (ΔTm) between the apo and ligand-bound states of the STING protein and (2) the concentration of the thermal denaturation transition (EC50) as a surrogate measure of binding affinity (Kd). […] Protein in assay buffer was transferred to a 384 well plate and incubated with the hydrophobic fluorescent dye SYBR Orange. A temperature ramp was applied to the plate and the resulting dye fluorescence was plotted as a function of temperature. The first derivative of this function (dF/dT) was then used to extrapolate the melting temperature of the protein at various concentrations of compound and determine the thermal denaturation profile of a protein/compound complex.
5 μM purified Target STING Protein • 3. 8 μM Sypro Orange Dye • 4. Buffer: 100 mM NaCl, 30 mM HEPES, pH 7.5 • 5. Thermal Ramp: 0.5° C./min • 6. <1% DMSO • 7. 11 point, 2 fold dilution, duplicate, 300 μM high concentrations • 8.

[3] = biological target: human STING protein (140-379), WT (Homo sapiens, UniProt Q86WV6, H232R); experiment: Radiometric filtration binding competition assay (FBA), hSTING-WT; conditions: WT-hSWAT IC50 (μM), WT_FBA_HIS-SUMO-hSWAT; wild-type human STING; competition with [H3] 2′3′cGAMP
Chain of human STING protein (140-379), WT (Q86WV6 140-379 H232R): as above

CN(C)c1c(Cl)ccc2c(=O)c3ccc(C(C)(C)C)cc3n(CC(=O)NS(C)(=O)=O)c12 [Compound 57]
Emax [1]: > 50% | IC50 [1]: < 50 µM | IC50 [2]: < 20 µM | WT_DSF_hSWAT Tm Shift (° C.) (hSTING-R232 (aa140-379)): D (“D” >7° C.) | IC50 [3]: < 20 µM

Cc1ccccc1-c1c(Cl)ccc2c(=O)c3ccccc3n(CC(=O)O)c12 [Compound 59]
Emax [1]: 5 to 25% | IC50 [1]: 50 to 100 µM | IC50 [2]: > 300 µM | WT_DSF_hSWAT Tm Shift (° C.) (hSTING-R232 (aa140-379)): B (“B” = 0-2° C.) | IC50 [3]: 20 to 100 µM

O=C(O)Cn1c2ccccc2c(=O)c2ccc(Cl)c(-c3cccs3)c21 [Compound 62]
Emax [1]: 25 to 50% | IC50 [1]: > 150 µM | IC50 [2]: 20 to 100 µM | WT_DSF_hSWAT Tm Shift (° C.) (hSTING-R232 (aa140-379)): D (“D” >7° C.) | IC50 [3]: 20 to 100 µM

Cc1ccc2c(=O)c3ccc(Cl)c(N4CCCC4)c3n(CC(=O)O)c2c1 [Compound 64]
Emax [1]: > 50% | IC50 [1]: < 50 µM | IC50 [2]: 20 to 100 µM | WT_DSF_hSWAT Tm Shift (° C.) (hSTING-R232 (aa140-379)): D (“D” >7° C.) | IC50 [3]: 20 to 100 µM

COc1ccccc1Nc1ccc2c(=O)c3ccc(Cl)c(N(C)C)c3n(CC(=O)O)c2c1 [Compound 90]
Emax [1]: > 50% | IC50 [1]: < 50 µM | WT_DSF_hSWAT Tm Shift (° C.) (hSTING-R232 (aa140-379)): D (“D” >7° C.) | IC50 [3]: < 20 µM

CN(C)c1c(Cl)ccc2c(=O)c3cc(Cl)c(Nc4ccccc4)cc3n(CC(=O)O)c12 [Compound 91]
Emax [1]: > 50% | IC50 [1]: < 50 µM | WT_DSF_hSWAT Tm Shift (° C.) (hSTING-R232 (aa140-379)): D (“D” >7° C.) | IC50 [3]: < 20 µM

CN(C)c1c(Cl)ccc2c(=O)c3ccc(Nc4c(F)cccc4F)cc3n(CC(=O)O)c12 [Compound 92]
Emax [1]: > 50% | IC50 [1]: < 50 µM | WT_DSF_hSWAT Tm Shift (° C.) (hSTING-R232 (aa140-379)): D (“D” >7° C.) | IC50 [3]: < 20 µM
